Laboratory results reported in patent US20240315993A1, “ANTIPARASITIC COMPOUNDS” (Intervet Inc., priority 2021, published 2024).
pEC50: −log10 of the molar value. Read-outs that look alike come from different tables or passages of the source.

Assays:
[1] = test system: Mobile stages of sea lice (pre-adults, adults of Lepeophtheirus salmonis); test: Adult sea lice contact assay; settings: read-out: EC50 (sea lice inhibition, dead+damaged)
Description: Mobile stages of sea lice (i.e., pre-adults, adults of Lepeophtheirus salmonis) were exposed to seawater spiked with declining concentrations of a test compound (dissolved in a PEG sea-water mixture). Sea lice inhibition (% of dead+damaged sea lice) was assessed after approximately 1 and 24 hours of continuous exposure in comparison to a negative (solvent) control group.

[2] = test system: larvae of Rhipicephalus microplus isolates with known resistance profiles; test: Tick larvae resistance assay (larval immersion test, LIT)
Description: A tick resistance assay (i.e., larval immersion test, LIT) was carried out using larvae of several Rhipicephalus microplus isolates with known resistance profiles (i.e.: fully susceptible; resistant to dieldrin, coumaphos, DDT, chlorpyriphos, flumethrin, cypermethrin, amitraz, fluazuron).
Tick larvae (Rhipicephalus microplus) were immersed for approximately 3 minutes in test compound solution. Tick mortality was assessed approximately 24 hours after contact exposure. The vitality of used parasites was confirmed in negative control groups (i.e., an untreated control and a solvent control).

[3] = test system: Dermacenter variabilis; test: Cattle - efficacy against multi-host ticks (Dermacenter variabilis); type: in vivo
Description: (§1) Cattle were treated subcutaneously or topically (pour-on) at a dose of 5 mg/kg bodyweight of a test compound (Day 0). As subcutaneous formulation NMP 60%/PEG300 40% was used, and as pour-on formulation DMA 92%/DEET 8% was used. Cattle of the negative control group received only the formulation excipients of both formulations (SC, pour-on).
(§2) Cattle were locally infested with 30 to 40 unfed adult ticks each of Rhipicephalus appendiculatus and Dermacenter variabilis (for both species sex ratio 1:1), by placing the ticks in an ear sleeve (R. appendiculatus) or a stockinet patch attached to the body side (D. variabilis) once before treatment, and at different time points after treatment. Free (i.e., non-attached ticks) were removed from ear sleeves/stockinet patches two days after each infestation and were excluded from the efficacy calculation.
(§3) Compounds with efficacy ≥80 percent were found active.

[4] = test system: juvenile soft ticks (Ornithodoros moubata); test: Guinea pig - efficacy against argaside tick; type: in vivo
In short: (§4)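 Guinea pigs given 5 mg/kg test compound orally (gavage) or s.c. in 10% DMF/emulsifier plus 90% water for injection, with local co-infestations of Ornithodoros moubata juveniles and Cimex lectularius at several post-treatment times. Engorged parasites scored dead/damaged about 24 h after collection; % inhibition versus pretreatment baseline by modified Schneider-Orelli formula.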

[5] = test system: Copepodids (juvenile sea lice stage of Lepeophtheirus salmonis); test: Juvenile sea lice contact assay; settings: Lepeophtheirus salmonis, read-out: Sea lice inhibition (% of dead+damaged copepodids)
Description: Copepodids (juvenile sea lice stage of Lepeophtheirus salmonis) were exposed to seawater spiked with declining concentrations of a test compound (dissolved in a DMSO sea-water mixture). Sea lice inhibition (% of dead+damaged copepodids) was assessed after approximately 24 hours of continuous exposure. The vitality of used parasites was confirmed in a negative (solvent) control group.

[6] = test system: Rhipicephalus microplus; test: Cattle - efficacy against one-host tick; type: in vivo; settings: 1 mg/kg topical (Compound 4: spray solution; others: DMA 92%/DEET 8% pour-on)
Description: Cattle were infested (whole body) with up to 3000 Rhipicephalus microplus larvae two or three times per week before and after the treatment day (Day 0). Cattle of treatment groups were treated subcutaneously or topically (spray or pour-on) at a dose of 1 mg/kg bodyweight of a test compound. As subcutaneous formulation either 2-pyrrolidon 50%/Tween 80 50% or NMP 60%/PEG300 40% was used. As topical formulation either a spray solution (DMF/Emulsifier 2%/tap water 98%) (Compound 4) or a DMA 92%/DEET 8% pour-on solution (all other compounds) or a pour-on solution containing Imwitor 988 (20%)+Miglyol 840 (QS) (Compound 453 and Compound 466) or a pour-on solution containing Miglyol 840 (QS) (Compound 453) was used. Cattle of the negative control group received only the formulation excipients of the respective administration route.
Fully engorged female ticks dropping from cattle were collected daily after treatment and counted in treatment and control groups. Efficacy was expressed using the standard ADEQ analysis method (ADEQ calculation in accordance with WAAVP guidelines for evaluating the efficacy of acaricides against ticks on ruminants; Veterinary parasitology 136 (2006) 29-43). Compounds with efficacy ≥80 percent were found active/effective. Onset of efficacy means the first Day with efficacy ≥80 percent. Duration of efficacy means the last Day with efficacy ≥80 percent.

[7] = test system: bed bugs (Cimex lectularius); test: Guinea pig - efficacy against bed bug; type: in vivo
In short: as §4

[8] = test system: Rhipicephalus appendiculatus; test: Cattle - efficacy against multi-host ticks (Rhipicephalus appendiculatus); type: in vivo
Description: as §1, §2, §3

[9] = test system: Lepeophtheirus salmonis; test: Salmon - in vivo efficacy against sea lice using gavage administration; settings: po, 168 h, read-out: therapeutic efficacy against (pre-)adult sea lice (% reduction vs control), salmon, 5 mg/kg once by gavage, day -28 infestation, counted day 7
[10] = test system: Lepeophtheirus salmonis; test: as above; settings: 5 mg/kg once by gavage, day -3 infestation, counted around day 28
Description: Salmon (Salmo solar) were treated once orally by gavage at a dose of 5 mg/kg bodyweight per fish (Day 0). As formulation DMSO 5%/fish oil 95% was used. Salmon of the negative control group received only the excipients of the formulation.
The fish were infested with Lepeophtheirus salmonis copepodids twice before treatment (i.e., around day −28 and day −3) and once after treatment (i.e., day 17).
Around day 28 (end of animal phase), fish were euthanized, and lice on each fish were classified ((pre-)adult or juvenile stage) and counted. […] Efficacy is expressed as a % reduction of sea lice in treated groups versus a control group, using the Abbott's formula.

[11] = 5 mg/kg subcutaneous, re-infested after 7 days
[12] = 5 mg/kg subcutaneous, re-infested after 14 days
[13] = 5 mg/kg subcutaneous, re-infested after 21 days
[14] = 5 mg/kg subcutaneous, therapeutic, Day 2
[15] = 5 mg/kg topical pour-on, re-infested after 7 days
[16] = 5 mg/kg topical pour-on, re-infested after 14 days
[17] = 5 mg/kg topical pour-on, re-infested after 21 days
[18] = 5 mg/kg topical pour-on, re-infested after 28 days
[19] = 5 mg/kg subcutaneous, after 7 days
[20] = 5 mg/kg subcutaneous, after 10 days
[21] = 5 mg/kg subcutaneous, after 14 days
[22] = 5 mg/kg subcutaneous, after 17 days
[23] = pre-adults/adults, assessed after ~1 and 24 h
[24] = 5 mg/kg, at least until Day 10, both administration routes (oral, subcutaneous)

## O=C(Nc1ccc(F)cc1)c1cc(NC(=O)[C@H]2[C@H](c3cc(Cl)cc(Cl)c3)C2(Cl)Cl)ccc1F [Compound 446]
[1]
  pEC50: ≥ 8.00
[2]; isolate resistant to Coumaphos, Flumethrin, Cypermethrin
  LC50: 0.353 ppm
[2]; isolate resistant to Coumaphos, Flumethrin, Cypermethrin, Amitraz
  LC50: 0.48 ppm
[2]; isolate resistant to DDT, Dieldrin, Coumaphos
  LC50: 0.31 ppm
[2]; isolate resistant to DDT, Dieldrin, Coumaphos, Chlorpyriphos
  LC50: 0.463 ppm
[2]; isolate resistant to Dieldrin, Coumaphos, Fluazuron
  LC50: 0.322 ppm
[2]; isolate: Fully susceptible
  LC50: 0.344 ppm
[3]; [11]
  efficacy ≥80 percent against Dermacenter variabilis: prophylactic efficacy
[3]; [12]
  efficacy ≥80 percent against Dermacenter variabilis: prophylactic efficacy
[3]; [13]
  efficacy ≥80 percent against Dermacenter variabilis: prophylactic efficacy
[3]; 5 mg/kg subcutaneous, re-infested after 28 days
  efficacy ≥80 percent against Dermacenter variabilis: prophylactic efficacy
[3]; [14]
  efficacy ≥80 percent against Dermacenter variabilis: therapeutic efficacy
[3]; [15]
  efficacy ≥80 percent against Dermacenter variabilis: prophylactic efficacy
[3]; [16]
  efficacy ≥80 percent against Dermacenter variabilis: prophylactic efficacy
[3]; [17]
  efficacy ≥80 percent against Dermacenter variabilis: prophylactic efficacy
[3]; [18]
  efficacy ≥80 percent against Dermacenter variabilis: prophylactic efficacy
[3]; 5 mg/kg topical pour-on, re-infested after 35 days
  efficacy ≥80 percent against Dermacenter variabilis: prophylactic efficacy
[3]; 5 mg/kg topical pour-on, therapeutic, Day 2
  efficacy ≥80 percent against Dermacenter variabilis: therapeutic efficacy
[4]; 5 mg/kg oral, Day 0
  activity against tick nymphs (≥80% inhibition, killed+damaged): immediate activity
[4]; 5 mg/kg subcutaneous, Day 0
  activity against tick nymphs (≥80% inhibition, killed+damaged): immediate activity
[4]; [19]
  activity against tick nymphs (≥80% inhibition, killed+damaged): activity
[4]; [20]
  activity against tick nymphs (≥80% inhibition, killed+damaged): activity
[4]; [21]
  activity against tick nymphs (≥80% inhibition, killed+damaged): activity
[4]; [22]
  activity against tick nymphs (≥80% inhibition, killed+damaged): activity
[4]; 5 mg/kg, ticks and bed bugs
  duration of efficacy, subcutaneous compared with oral administration: longer duration of efficacy
[5]; 24 h
  inhibition at 0.001 µM: 100%
[6]
  duration of efficacy (last Day with efficacy ≥80 percent): 47 days
  onset of efficacy (first Day with efficacy ≥80 percent): 3 days
[7]; 5 mg/kg oral, Day 0
  activity against bed bugs (≥80% inhibition, killed+damaged): immediate activity
[7]; 5 mg/kg oral, after 7 days
  activity against bed bugs (≥80% inhibition, killed+damaged): activity
[7]; 5 mg/kg subcutaneous, Day 0
  activity against bed bugs (≥80% inhibition, killed+damaged): immediate activity
[7]; [19]
  activity against bed bugs (≥80% inhibition, killed+damaged): activity
[7]; [20]
  activity against bed bugs (≥80% inhibition, killed+damaged): activity
[7]; [21]
  activity against bed bugs (≥80% inhibition, killed+damaged): activity
[7]; [22]
  activity against bed bugs (≥80% inhibition, killed+damaged): activity
[7]; 5 mg/kg subcutaneous, after 21 days
  activity against bed bugs (≥80% inhibition, killed+damaged): activity
[7]; 5 mg/kg subcutaneous, after 24 days
  activity against bed bugs (≥80% inhibition, killed+damaged): activity
[8]; [11]
  efficacy ≥80 percent against Rhipicephalus appendiculatus: prophylactic efficacy
[8]; [12]
  efficacy ≥80 percent against Rhipicephalus appendiculatus: prophylactic efficacy
[8]; [13]
  efficacy ≥80 percent against Rhipicephalus appendiculatus: prophylactic efficacy
[8]; [14]
  efficacy ≥80 percent against Rhipicephalus appendiculatus: therapeutic efficacy
[8]; [15]
  efficacy ≥80 percent against Rhipicephalus appendiculatus: prophylactic efficacy
[8]; [16]
  efficacy ≥80 percent against Rhipicephalus appendiculatus: prophylactic efficacy
[8]; [17]
  efficacy ≥80 percent against Rhipicephalus appendiculatus: prophylactic efficacy
[8]; [18]
  efficacy ≥80 percent against Rhipicephalus appendiculatus: prophylactic efficacy

## O=C(Nc1c(F)cc(F)cc1F)c1cc(NC(=O)[C@H]2[C@H](c3cc(Cl)cc(Cl)c3)C2(Cl)Cl)ccc1Cl [Compound 449]
[1]; [23]
  pEC50: 7.60 to 8.00
[9]
  inhibition in vivo at 5 mg/kg: 80%
[4]; 5 mg/kg oral, Day 0
  activity against tick nymphs (≥80% inhibition, killed+damaged): immediate activity
[4]; 5 mg/kg subcutaneous, Day 0
  activity against tick nymphs (≥80% inhibition, killed+damaged): immediate activity
[4]; [19]
  activity against tick nymphs (≥80% inhibition, killed+damaged): activity
[5]; 10 nM in seawater, ~24 h
  inhibition at 0.01 µM: 100%
[7]; 5 mg/kg oral, Day 0
  activity against bed bugs (≥80% inhibition, killed+damaged): immediate activity
[7]; 5 mg/kg subcutaneous, Day 0
  activity against bed bugs (≥80% inhibition, killed+damaged): immediate activity
[10]
  therapeutic efficacy against juvenile sea lice (% reduction vs control): 80%

## O=C(Nc1ccc(F)cc1F)c1cc(NC(=O)[C@H]2[C@H](c3cc(F)c(F)c(F)c3)C2(Cl)Cl)ccc1Cl [Compound 451]
[1]; [23]
  pEC50: ≥ 8.00
[9]
  inhibition in vivo at 5 mg/kg: 80%
[4]; 5 mg/kg oral, Day 0
  activity against tick nymphs (≥80% inhibition, killed+damaged): immediate activity
[4]; 5 mg/kg oral, after 7 days
  activity against tick nymphs (≥80% inhibition, killed+damaged): activity
[4]; 5 mg/kg oral, after 10 days
  activity against tick nymphs (≥80% inhibition, killed+damaged): activity
[4]; 5 mg/kg subcutaneous, Day 0
  activity against tick nymphs (≥80% inhibition, killed+damaged): immediate activity
[4]; [19]
  activity against tick nymphs (≥80% inhibition, killed+damaged): activity
[4]; [20]
  activity against tick nymphs (≥80% inhibition, killed+damaged): activity
[4]; [24]
  effective to control ticks: 100%
[5]; 1 nM in seawater, ~24 h
  inhibition at 0.001 µM: 100%
[7]; 5 mg/kg oral, Day 0
  activity against bed bugs (≥80% inhibition, killed+damaged): immediate activity
[7]; 5 mg/kg oral, after 7 days
  activity against bed bugs (≥80% inhibition, killed+damaged): activity
[7]; 5 mg/kg oral, after 10 days
  activity against bed bugs (≥80% inhibition, killed+damaged): activity
[7]; 5 mg/kg subcutaneous, Day 0
  activity against bed bugs (≥80% inhibition, killed+damaged): immediate activity
[7]; [19]
  activity against bed bugs (≥80% inhibition, killed+damaged): activity
[7]; [20]
  activity against bed bugs (≥80% inhibition, killed+damaged): activity
[7]; [24]
  effective to control bed bugs: 100%
